Source: patent US10568819B2, “Skin enhancing compositions and methods” (Sytheon Limited, priority 2016, dated 2020)
Where two headings read alike, the source gives them in different places.

Assays:
LAMA4 = assay: DNA microarray gene expression, LAMA4; format: cell-based
Text: (§1) In light of the efficacy of the aryl alkanones ire addressing many of the molecular/biomolecular processes damaged by UV exposure, a study was undertaken to assess whether these compounds would also be effective in addressing symptoms associated with non-UV induced skin aging including chronological aging as well as disease conditions that likewise adversely affect skin processes. The studies conducted involves DNA microarray, PCR array, cell culture, enzyme inhibitory activity.

ITGB5 = assay: PCR array gene expression, ITGB5; format: cell-based
Text: as §1

COL5A1 [1] = assay: DNA microarray gene expression, COL5A1; format: cell-based
Text: as §1

NOX [2] = conditions: UVA, Fibroblasts
Cell # = assay: Cell number (Sulforhodamine B assay) after UVA irradiation; format: cell-based; conditions: 3 hours after irradiation
Method: (§2) The study was conducted in accordance with the protocols of Berridge et al, (M V Berridge & A S Tan, Characterization of the cellular reduction of 3-(4,5-dimethylthiazol-2-yl)-2,5-diphenyltetrazolium bromide (MTT): subcellular localization, substrate dependence, and involvement of mitochondrial electron transport in MTT reduction, Arch. Biochem. Biophys. 303:474-482, 1993) and Voigt (W Voigt, Sulforhodamine B assay and chemosensitivity, Methods Mol Med, 110:39-48, 2005). Cellular metabolism is determined using the MTT assay to measure the activity of mitochondrial dehydrogenases, such as succinate dehydrogenase, which are implicated in the respiratory electron transport chain in mitochondria [M V Berridge & Tan Biochem Biophys, 303:474-482, 1993]. Additionally, the samples were subject to the Mitochondrial ToxGlo Assay (Promega Technical Manual, G8000 and G8001), which is a cell-based assay method that has been developed to quantify potential mitochondrial dysfunction as a result of xenobiotic exposure, using a sequential-addition, multiplexed chemistry.
(§3) Table 8 presents the result on the effect of UVA radiation on cell metabolism 3 hours after irradiation. As indicated, Compound 1 improves cell metabolism, even at a very low use concentration. Table 9 presents the effect of 24 hour pre-incubation on UVA-induced mitochondrial damage measured by ATP production in human dermal fibroblasts. […] Finally. Table 10 presents the effect of 24 hour pre-incubation on UVA-induced plasma membrane disruption in human dermal fibroblasts. As indicated, Compound 1 almost completely reversed plasma membrane disruption, again at a very low use concentration.

Fibroblasts [3] = assay: UVA- and UVB-induced formation of immediate CPDs (iCPDs) in fibroblasts; format: cell-based; conditions: UVA, 25 μg/ml
Method: Given the significance of CPDs in skin aging and damage, a study was undertaken to determine whether compounds of the present invention have the ability to directly protect the genome of skin cells from the mutagenic effect of UV light as evidenced by CPDs inhibition. The study was conducted in accordance with the method described by Mitchell et. al. [Mitchell, D L, The relative cytotoxicity of (6-4) photoproducts and cyclobutane dimers in mammalian cells. Photochem Photobiol, 48(1):51-57, 1988)] pursuant to which UVA- and UVB-induced formation of immediate CPDs (iCPDs) were determined.

Fibroblasts [4] = assay: UVA-induced delayed formation of CPDs (dCPDs) in fibroblasts; format: cell-based; conditions: 25 μg/ml, product incubated for 24 hrs. plus UVA irradiation
Method: A second study was carried out, similar to the first, except that this time the analysis was in assessing the efficacy, if any, of the presently taught aryl alkanones in reducing UVA-induced delayed formation of CPDs (dCPDs).

Collagen type 4 = assay: Collagen 4 boosting in human dermal fibroblasts; format: cell-based; conditions: HDF, incubation time of 6 days
Method: In this study, an investigation was performed in relation to the ability, if any, of the aryl alkanones to boost the production of Collagens 1, 3 and 4 proteins. […] In this study, the cells used were human dermal fibroblasts (HDF), passage 12 (Cell Applications, San Diego, Calif.) which underwent an incubation time of 6 days.

TIMP3 = assay: PCR array gene expression, TIMP3; format: cell-based
Text: as §1

[5] = tested on: mitochondrial dehydrogenases; assay: MTT assay of cellular metabolism after UVA irradiation; format: cell-based; conditions: 3 hours after irradiation
Method: as §2, §3

COL11A1 = assay: PCR array gene expression, COL11A1; format: cell-based
Text: as §1

human dermal fibroblasts = assay: UVA-induced plasma membrane disruption (Mitochondrial ToxGlo Assay); format: cell-based; conditions: 24 hour Pre-incubation
Method: as §2, §3

TIMP2 = assay: DNA microarray gene expression, TIMP2; format: cell-based
Text: as §1

COL6A1 = assay: PCR array gene expression, COL6A1; format: cell-based
Text: as §1

COL14A1 = assay: PCR array gene expression, COL14A1; format: cell-based
Text: as §1

TNS2 = assay: DNA microarray gene expression, TNS2; format: cell-based
Text: as §1

POT1 = assay: DNA microarray gene expression, POT1; format: cell-based
Text: as §1

ITGA2 = assay: PCR array gene expression, ITGA2; format: cell-based
Text: as §1

COL1A1 = assay: DNA microarray gene expression, COL1A1; format: cell-based
Text: as §1

MSH6 = assay: DNA microarray gene expression, MSH6; format: cell-based
Text: as §1

COL4A1 = assay: DNA microarray gene expression, COL4A1; format: cell-based
Text: as §1

VMN = assay: DNA microarray gene expression, VMN; format: cell-based
Text: as §1

iNOS = iNOS (Homo sapiens, UniProt P35228); assay: Reduction of iNOS activity; format: biochemical
Sequence of iNOS (P35228 whole entry, species assumed): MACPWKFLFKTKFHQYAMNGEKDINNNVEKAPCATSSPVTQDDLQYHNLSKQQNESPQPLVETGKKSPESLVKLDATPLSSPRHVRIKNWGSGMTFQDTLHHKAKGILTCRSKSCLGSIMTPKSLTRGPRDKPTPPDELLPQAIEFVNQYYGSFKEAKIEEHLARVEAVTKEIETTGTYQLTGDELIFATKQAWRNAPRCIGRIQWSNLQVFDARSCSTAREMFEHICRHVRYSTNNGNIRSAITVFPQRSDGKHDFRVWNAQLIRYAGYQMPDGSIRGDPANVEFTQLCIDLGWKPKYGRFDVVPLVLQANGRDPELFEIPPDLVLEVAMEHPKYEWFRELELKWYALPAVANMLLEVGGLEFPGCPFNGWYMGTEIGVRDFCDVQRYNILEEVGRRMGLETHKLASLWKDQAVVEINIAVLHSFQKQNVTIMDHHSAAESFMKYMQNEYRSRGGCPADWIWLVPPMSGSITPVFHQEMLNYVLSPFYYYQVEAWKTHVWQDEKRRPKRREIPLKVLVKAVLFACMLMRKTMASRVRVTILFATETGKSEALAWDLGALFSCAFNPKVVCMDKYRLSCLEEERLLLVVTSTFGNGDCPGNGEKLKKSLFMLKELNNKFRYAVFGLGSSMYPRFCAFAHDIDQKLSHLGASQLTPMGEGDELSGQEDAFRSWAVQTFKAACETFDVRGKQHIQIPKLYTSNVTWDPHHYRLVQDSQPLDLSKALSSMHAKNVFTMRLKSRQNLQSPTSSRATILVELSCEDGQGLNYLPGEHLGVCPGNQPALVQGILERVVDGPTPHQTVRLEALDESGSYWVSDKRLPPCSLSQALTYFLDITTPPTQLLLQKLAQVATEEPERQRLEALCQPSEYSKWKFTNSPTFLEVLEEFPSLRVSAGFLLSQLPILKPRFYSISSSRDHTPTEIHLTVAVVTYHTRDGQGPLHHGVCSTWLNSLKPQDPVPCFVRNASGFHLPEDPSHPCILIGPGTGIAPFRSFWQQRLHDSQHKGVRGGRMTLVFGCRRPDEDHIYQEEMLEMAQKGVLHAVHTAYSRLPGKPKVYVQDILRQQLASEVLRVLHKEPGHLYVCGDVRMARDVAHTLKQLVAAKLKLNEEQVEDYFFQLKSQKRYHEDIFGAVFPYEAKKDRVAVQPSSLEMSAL
Text: Accordingly, an investigation was undertaken to assess the efficacy of compounds according to the present teaching as compared to compounds that are closely structurally related thereto in inhibiting NO product.

COL5A1 [6] = assay: PCR array gene expression, COL5A1; format: cell-based
Text: as §1

NOX [7] = conditions: Keratinocytes
ITGA1 = assay: PCR array gene expression, ITGA1; format: cell-based
Text: as §1

COc1cc(CC(C(C)=O)C(C)=O)ccc1O [Compound 1, Acetyl Zingerone]
Microarray, LAMA4 gene expression (LAMA4): +1.7
PCR array, ITGB5 gene expression (ITGB5): +1.7
Microarray, COL5A1 gene expression (COL5A1 [1]): +4.1
reduction of NOX activity (NOX [2]; 25 μg/ml): −27%
reduction of NOX activity (NOX [2]; 50 μg/ml): −33%
Cell # (% Control) (Cell #; 0.5 μg/ml): 99 % Control
Cell # (% Control) (Cell #; 2 μg/ml): 101 % Control
Cell # (% Control) (Cell #; 5 μg/ml): 95 % Control
UVA/% Reduction in iCPDs vs. Control (Fibroblasts [3]): 45%
UVA/% Reduction in dCPDs vs. control, 0 hr. (Reduction in iCPDs) (Fibroblasts [4]; 0 hr.): ^+0 hr.: ↓45%
UVA/% Reduction in dCPDs vs. control, 1 hr. (Fibroblasts [4]; 1 hr.): 1 hr.: ↓20%
UVA/% Reduction in dCPDs vs. control, 2 hr. (Fibroblasts [4]; 2 hr.): 2 hr.: ↓18%
% Collagen 4 Boosting (Collagen type 4; 50 μg/ml): 145%
% Collagen 4 Boosting (Collagen type 4; 100 μg/ml): 245%
PCR array, TIMP3 gene expression (TIMP3): +2.4
Cell Metabolism Standardized to cell # (% Control) ([5]; 0.5 μg/ml): 123 % Control
MTT (% Control) ([5]; 0.5 μg/ml): 122 % Control
Cell Metabolism Standardized to cell # (% Control) ([5]; 2 μg/ml): 136 % Control
MTT (% Control) ([5]; 2 μg/ml): 137 % Control
Cell Metabolism Standardized to cell # (% Control) ([5]; 5 μg/ml): 174 % Control
MTT (% Control) ([5]; 5 μg/ml): 164 % Control
PCR array, COL11A1 gene expression (COL11A1): +1.9
Plasma membrane disruption-related fluorescence (% Control) (human dermal fibroblasts; 6.25 ug/ml): 125 % Control
Plasma membrane disruption-related fluorescence (% Control) (human dermal fibroblasts; 12.5 ug/ml): 130 % Control
Plasma membrane disruption-related fluorescence (% Control) (human dermal fibroblasts; 25 ug/ml): 117 % Control
Microarray, TIMP2 gene expression (TIMP2): +1.5
PCR array, COL6A1 gene expression (COL6A1): +1.5
PCR array, COL14A1 gene expression (COL14A1): +2.1
Microarray, TNS2 gene expression (TNS2): +1.7
Microarray, POT1 gene expression (POT1): +2.9
PCR array, ITGA2 gene expression (ITGA2): +1.6
Microarray, COL1A1 gene expression (COL1A1): +1.6
Microarray, MSH6 gene expression (MSH6): +2.1
Microarray, COL4A1 gene expression (COL4A1): +1.6
Microarray, VMN gene expression (VMN): +1.7
IC50 (iNOS): 194 µM
PCR array, COL5A1 gene expression (COL5A1 [6]): +2.7
reduction of NOX activity (NOX [7]; UVA, 25 μg/ml): −27%
reduction of NOX activity (NOX [7]; UVA, 50 μg/ml): −38%
reduction of NOX activity (NOX [7]; UVB, 25 μg/ml): −11%
reduction of NOX activity (NOX [7]; UVB, 50 μg/ml): −29%
PCR array, ITGA1 gene expression (ITGA1): +2.2
